Measurements as given in patent publication US6221865A, “Inhibitors of protein isoprenyl transferases” (priority 1998, dated 2001).

Biological target: T1, protein farnesyltransferase (Rattus norvegicus, UniProt Q02293+Q04631)
T1 construct: The enzyme is purified according to Reiss, Y., et al., Cell, 62: 81-88 (1990), utilizing steps one through three; from tissue; host or cells: rat brain
Experiment: Inhibition of farnesyltransferase (scintillation proximity assay, rat brain enzyme, biotin-K Ras B fragment substrate)
Format: biochemical
Conditions: for % inhibition of farnesyltransferase at 1 × 10^-7 M: 1 × 10^-7 M (Table 3); for % inhibition of farnesyltransferase at 1 × 10^-8 M: 1 × 10^-8 M (Table 4); for % inhibition of farnesyltransferase at 1 × 10^-6 M: 1 × 10^-6 M (Table 2); for % inhibition of farnesyltransferase at 1 × 10^-5 M: 1 × 10^-5 M (Table 1)
Summary of the method: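 Enzyme from rat brain, partly purified (steps one to three), assayed by SPA kit using 0.1 mM final biotin-K Ras B peptide as prenyl acceptor rather than biotin-lamin. Activity given as percent inhibition.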

T1 sequence (Q02293 whole entry, one chain of several): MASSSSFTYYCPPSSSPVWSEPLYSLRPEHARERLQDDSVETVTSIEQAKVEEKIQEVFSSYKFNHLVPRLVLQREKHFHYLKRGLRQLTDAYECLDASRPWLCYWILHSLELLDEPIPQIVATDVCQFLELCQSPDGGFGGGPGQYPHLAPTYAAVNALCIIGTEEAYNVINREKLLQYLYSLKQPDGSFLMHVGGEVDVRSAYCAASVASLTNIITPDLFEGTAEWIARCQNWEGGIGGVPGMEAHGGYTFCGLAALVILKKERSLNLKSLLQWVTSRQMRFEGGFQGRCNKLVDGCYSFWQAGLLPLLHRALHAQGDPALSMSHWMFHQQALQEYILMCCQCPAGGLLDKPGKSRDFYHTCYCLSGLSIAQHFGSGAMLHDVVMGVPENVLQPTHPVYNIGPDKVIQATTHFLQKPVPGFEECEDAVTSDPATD

SMILES	% inhibition of farnesyltransferase at 1 × 10^-6 M [%]	further results
CSCC[C@H](NC(=O)c1ccc(COCCCCc2ccccc2)cc1-c1ccccc1C)C(=O)O [Example 601]		% inhibition of farnesyltransferase at 1 × 10^-7 M: 92%
CSCC[C@H](NC(=O)c1ccc(CN[C@@H](CO)C2CCCCC2)cc1-c1ccccc1C)C(=O)O [Example 604]		% inhibition of farnesyltransferase at 1 × 10^-7 M: 86%
CSCC[C@H](NC(=O)c1ccc(CN(CCC2CCCCC2)Cc2ccccc2)cc1-c1ccccc1C)C(=O)[O-].[Li+] [Example 605]		% inhibition of farnesyltransferase at 1 × 10^-8 M: 68%
CCSC[C@H](CC1CCCCC1)OCc1ccc(C(=O)N[C@@H](CCSC)C(=O)O)c(-c2ccccc2C)c1 [Example 606]		% inhibition of farnesyltransferase at 1 × 10^-8 M: 93%
CSCC[C@H](NC(=O)c1ccc(CNCCC2CCCCC2)cc1-c1ccccc1C)C(=O)O.O=C(O)C(F)(F)F [Example 607]	96	
CSCC[C@H](NC(=O)c1ccc(CN(C)CCC2CCCCC2)cc1-c1ccccc1C)C(=O)[O-].[Li+] [Example 608]		% inhibition of farnesyltransferase at 1 × 10^-8 M: 91%
CSCC[C@H](NC(=O)c1ccc(CN(CCC2CCCCC2)C(C)=O)cc1-c1ccccc1C)C(=O)[O-].[Li+] [Example 609]		% inhibition of farnesyltransferase at 1 × 10^-7 M: 95%
CSCC[C@H](NC(=O)c1ccc(CN(CCC2CCCCC2)C(=O)N(C)C)cc1-c1ccccc1C)C(=O)O [Example 610]	94	
CSCC[C@H](NC(=O)c1ccc(CN(CCC2CCCCC2)S(C)(=O)=O)cc1-c1ccccc1C)C(=O)O [Example 611]		% inhibition of farnesyltransferase at 1 × 10^-7 M: 95%
CSCC[C@H](NC(=O)c1ccc(CN(CCC2CCCCC2)S(=O)(=O)c2ccccc2)cc1-c1ccccc1C)C(=O)O [Example 612]		% inhibition of farnesyltransferase at 1 × 10^-8 M: 96%
CSCC[C@H](NC(=O)c1ccc(CN[C@H](C)CC2CCCCC2)cc1-c1ccccc1C)C(=O)O [Example 613]	97	
CC[C@H](CC1CCCCC1)NCc1ccc(C(=O)N[C@@H](CCSC)C(=O)O)c(-c2ccccc2C)c1 [Example 614]		% inhibition of farnesyltransferase at 1 × 10^-8 M: 92%
CCCC[C@H](CC1CCCCC1)NCc1ccc(C(=O)N[C@@H](CCSC)C(=O)O)c(-c2ccccc2C)c1 [Example 615]		% inhibition of farnesyltransferase at 1 × 10^-7 M: 94%
CSCC[C@H](NC(=O)c1ccc(CNC(CC2CCCCC2)C2CCCCC2)cc1-c1ccccc1C)C(=O)[O-].[Li+] (stereo partly drawn) [Example 616]		% inhibition of farnesyltransferase at 1 × 10^-7 M: 95%
CSCC[C@H](NC(=O)c1ccc(CN[C@H](CO)CC2CCCCC2)cc1-c1ccccc1C)C(=O)O [Example 617]	99	
CSCC[C@H](NC(=O)c1ccc(CN[C@@H](CO)CC2CCCCC2)cc1-c1ccccc1C)C(=O)O [Example 618]		% inhibition of farnesyltransferase at 1 × 10^-7 M: 89%
C=C[C@H](CC1CCCCC1)NCc1ccc(C(=O)N[C@@H](CCSC)C(=O)O)c(-c2ccccc2C)c1 [Example 619]		% inhibition of farnesyltransferase at 1 × 10^-8 M: 95%
CCS(=O)(=O)C[C@H](CC1CCCCC1)NCc1ccc(C(=O)N[C@@H](CCSC)C(=O)O)c(-c2ccccc2C)c1 [Example 620]	98	
CCS(=O)(=O)C[C@H](CC1CCCCC1)NCc1ccc(C(=O)N[C@@H](CCS(C)(=O)=O)C(=O)O)c(-c2ccccc2C)c1 [Example 621]		% inhibition of farnesyltransferase at 1 × 10^-7 M: 98%
CSCC[C@H](NC(=O)c1ccc(CN[C@H](CSC(C)(C)C)CC2CCCCC2)cc1-c1ccccc1C)C(=O)O [Example 622]		% inhibition of farnesyltransferase at 1 × 10^-7 M: 95%
CSCC[C@H](NC(=O)c1ccc(CN[C@H](CSc2ccccc2)CC2CCCCC2)cc1-c1ccccc1C)C(=O)O [Example 623]		% inhibition of farnesyltransferase at 1 × 10^-7 M: 96%
CSCC[C@H](NC(=O)c1ccc(CNCCS)cc1-c1ccccc1)C(=O)O [Example 626]	61	
CSCC[C@H](NC(=O)c1ccc(CNCCSC(C)(C)C)cc1-c1ccccc1)C(=O)O [Example 627]	85	

SMILES	% inhibition of farnesyltransferase at 1 × 10^-6 M [%]	further results
CSCC[C@H](NC(=O)c1ccc(CNCC(O)CO)cc1-c1ccccc1)C(=O)O (stereo partly drawn) [Example 632]	43	
CSCCC(CO)NCc1ccc(C(=O)N[C@@H](CCSC)C(=O)O)c(-c2ccccc2)c1 (stereo partly drawn) [Example 633]	32	
CSCC[C@H](NC(=O)c1ccc(CNCCN(C(C)C)C(C)C)cc1-c1ccccc1)C(=O)O [Example 636]	72	
CSCC[C@H](NC(=O)c1ccc(CNCC(C)(C)CN(C)C)cc1-c1ccccc1)C(=O)O [Example 639]		% inhibition of farnesyltransferase at 1 × 10^-5 M: 44%
CSCC[C@H](NC(=O)c1ccc(CNCCN2CCCC2)cc1-c1ccccc1)C(=O)O [Example 641]	34	
CSCC[C@H](NC(=O)c1ccc(CNc2ccccc2F)cc1-c1ccccc1)C(=O)O [Example 642]	48	
CSCC[C@H](NC(=O)c1ccc(CNc2ccccc2C(N)=O)cc1-c1ccccc1)C(=O)O [Example 644]	54	
CSCC[C@H](NC(=O)c1ccc(CNc2ccccc2Oc2ccccc2)cc1-c1ccccc1)C(=O)O [Example 645]	37	
CCOC(=O)c1ccc(NCc2ccc(C(=O)N[C@@H](CCSC)C(=O)O)c(-c3ccccc3)c2)cc1 [Example 646]	58	
CSCC[C@H](NC(=O)c1ccc(CN(CCC#N)Cc2ccccc2)cc1-c1ccccc1)C(=O)O [Example 649]	86	
COc1ccccc1CNCc1ccc(C(=O)N[C@@H](CCSC)C(=O)O)c(-c2ccccc2)c1 [Example 650]	68	
COc1cccc(CNCc2ccc(C(=O)N[C@@H](CCSC)C(=O)O)c(-c3ccccc3)c2)c1 [Example 652]	41	
CSCC[C@H](NC(=O)c1ccc(CNCc2ccc(N)cc2)cc1-c1ccccc1)C(=O)O [Example 653]	62	
COc1ccc(CNCc2ccc(C(=O)N[C@@H](CCSC)C(=O)O)c(-c3ccccc3)c2)c(OC)c1 [Example 655]	35	
CSCCC(NC(=O)c1ccc(CNC(CO)c2ccccc2)cc1-c1ccccc1)C(=O)O (stereo not drawn) [Example 657]	32	
CSCCC(NC(=O)c1ccc(CNC(CO)c2ccccc2)cc1-c1ccccc1)C(=O)O (stereo not drawn) [Example 658]	73	
COc1cc2c(cc1OC)C(CNCc1ccc(C(=O)N[C@@H](CCSC)C(=O)O)c(-c3ccccc3)c1)=CC(C1CCCCC1)C2 (stereo partly drawn) [Example 659]		% inhibition of farnesyltransferase at 1 × 10^-5 M: 55%
CSCC[C@H](NC(=O)c1ccc(CNCC(O)c2cccc(O)c2)cc1-c1ccccc1)C(=O)O (stereo partly drawn) [Example 661]	45	
CSCC[C@H](NC(=O)c1ccc(CNC(CO)Cc2ccc(Cl)cc2)cc1-c1ccccc1)C(=O)O (stereo partly drawn) [Example 662]	68	
CSCC[C@H](NC(=O)c1ccc(CNCCC2CCCCC2)cc1-c1ccccc1)C(=O)O [Example 663]		% inhibition of farnesyltransferase at 1 × 10^-5 M: 43%
C=C[C@@H](CC1CCCCC1)NCc1ccc(C(=O)N[C@@H](CCSC)C(=O)O)c(-c2ccccc2)c1 [Example 664]		% inhibition of farnesyltransferase at 1 × 10^-5 M: 75%
CSCC[C@H](NC(=O)c1ccc(CN[C@@H](/C=C\CC(C)C)CC2CCCCC2)cc1-c1ccccc1)C(=O)O [Example 665]	55	
